From ChEMBL document CHEMBL1201861, “Genomics of Drug Sensitity in Cancer screening data, Wellcome Trust Sanger Institute”

Tests used:
Assay in all cases: cells
AU565 = type: functional, cell-based; conditions: Homo sapiens
Description: SANGER: Inhibition of human AU565 cell growth in a cell viability assay.

NUGC-3 = type: functional, cell-based; conditions: Homo sapiens
Description: SANGER: Inhibition of human NUGC-3 cell growth in a cell viability assay.

SCC-25 = type: functional, cell-based; conditions: Homo sapiens
Description: SANGER: Inhibition of human SCC-25 cell growth in a cell viability assay.

NCI-H596 = type: functional, cell-based; conditions: Homo sapiens
Description: SANGER: Inhibition of human NCI-H596 cell growth in a cell viability assay.

CP50-MEL-B = type: functional, cell-based; conditions: Homo sapiens
Description: SANGER: Inhibition of human CP50-MEL-B cell growth in a cell viability assay.

PFSK-1 = type: functional, cell-based; conditions: Homo sapiens
Description: SANGER: Inhibition of human PFSK-1 cell growth in a cell viability assay.

NCI-H2170 = type: functional, cell-based; conditions: Homo sapiens
Description: SANGER: Inhibition of human NCI-H2170 cell growth in a cell viability assay.

PANC-03-27 = type: functional, cell-based; conditions: Homo sapiens
Description: SANGER: Inhibition of human PANC-03-27 cell growth in a cell viability assay.

5637 = type: functional, cell-based; conditions: Homo sapiens
Description: SANGER: Inhibition of human 5637 cell growth in a cell viability assay.

NCI-H1623 = type: functional, cell-based; conditions: Homo sapiens
Description: SANGER: Inhibition of human NCI-H1623 cell growth in a cell viability assay.

NCI-H2452 = type: functional, cell-based; conditions: Homo sapiens
Description: SANGER: Inhibition of human NCI-H2452 cell growth in a cell viability assay.

OAW-28 = type: functional, cell-based; conditions: Homo sapiens
Description: SANGER: Inhibition of human OAW-28 cell growth in a cell viability assay.

HCC1395 = type: functional, cell-based; conditions: Homo sapiens
Description: SANGER: Inhibition of human HCC1395 cell growth in a cell viability assay.

SW1710 = type: functional, cell-based; conditions: Homo sapiens
Description: SANGER: Inhibition of human SW1710 cell growth in a cell viability assay.

SK-MEL3 = type: functional, cell-based, SK-MEL-3; conditions: Homo sapiens
Description: SANGER: Inhibition of human SK-MEL-3 cell growth in a cell viability assay.

M059J = type: functional, cell-based; conditions: Homo sapiens
Description: SANGER: Inhibition of human M059J cell growth in a cell viability assay.

DOK = type: functional, cell-based; conditions: Homo sapiens
Description: SANGER: Inhibition of human DOK cell growth in a cell viability assay.

DMS-273 = type: functional, cell-based; conditions: Homo sapiens
Description: SANGER: Inhibition of human DMS-273 cell growth in a cell viability assay.

CAL-62 = type: functional, cell-based; conditions: Homo sapiens
Description: SANGER: Inhibition of human CAL-62 cell growth in a cell viability assay.

SK-MEL-30 = type: functional, cell-based; conditions: Homo sapiens
Description: SANGER: Inhibition of human SK-MEL-30 cell growth in a cell viability assay.

CAPAN-1 = type: functional, cell-based; conditions: Homo sapiens
Description: SANGER: Inhibition of human CAPAN-1 cell growth in a cell viability assay.

NB17 = type: functional, cell-based, Homo sapiens; conditions: Homo sapiens, NB17
Description: SANGER: Inhibition of human NB17 cell growth in a cell viability assay.

AN3-CA = type: functional, cell-based; conditions: Homo sapiens
Description: SANGER: Inhibition of human AN3-CA cell growth in a cell viability assay.

NCI-H358 = type: functional, cell-based; conditions: Homo sapiens
Description: SANGER: Inhibition of human NCI-H358 cell growth in a cell viability assay.

IGR-1 = type: functional, cell-based; conditions: Homo sapiens
Description: SANGER: Inhibition of human IGR-1 cell growth in a cell viability assay.

UACC-893 = type: functional, cell-based; conditions: Homo sapiens
Description: SANGER: Inhibition of human UACC-893 cell growth in a cell viability assay.

PC-14 = type: functional, cell-based; conditions: Homo sapiens
Description: SANGER: Inhibition of human PC-14 cell growth in a cell viability assay.

RD = type: functional, cell-based; conditions: Homo sapiens
Description: SANGER: Inhibition of human RD cell growth in a cell viability assay.

Ca9-22 = type: functional, cell-based; conditions: Homo sapiens
Description: SANGER: Inhibition of human Ca9-22 cell growth in a cell viability assay.

HGC-27 = type: functional, cell-based; conditions: Homo sapiens
Description: SANGER: Inhibition of human HGC-27 cell growth in a cell viability assay.

MDA-MB-157 = type: functional, cell-based; conditions: Homo sapiens
Description: SANGER: Inhibition of human MDA-MB-157 cell growth in a cell viability assay.

NCI-H2122 = type: functional, cell-based; conditions: Homo sapiens
Description: SANGER: Inhibition of human NCI-H2122 cell growth in a cell viability assay.

HSC-2 = type: functional, cell-based; conditions: Homo sapiens
Description: SANGER: Inhibition of human HSC-2 cell growth in a cell viability assay.

OE19 = type: functional, cell-based; conditions: Homo sapiens
Description: SANGER: Inhibition of human OE19 cell growth in a cell viability assay.

NCI-H661 = type: functional, cell-based; conditions: Homo sapiens
Description: SANGER: Inhibition of human NCI-H661 cell growth in a cell viability assay.

SW1990 = type: functional, cell-based; conditions: Homo sapiens
Description: SANGER: Inhibition of human SW1990 cell growth in a cell viability assay.

CAL-33 = type: functional, cell-based; conditions: Homo sapiens
Description: SANGER: Inhibition of human CAL-33 cell growth in a cell viability assay.

SCC-9 = type: functional, cell-based; conditions: Homo sapiens
Description: SANGER: Inhibition of human SCC-9 cell growth in a cell viability assay.

KOSC-2 = type: functional, cell-based; conditions: Homo sapiens
Description: SANGER: Inhibition of human KOSC-2 cell growth in a cell viability assay.

SKG-IIIa = type: functional, cell-based; conditions: Homo sapiens
Description: SANGER: Inhibition of human SKG-IIIa cell growth in a cell viability assay.

D-336MG = type: functional, cell-based, Homo sapiens; conditions: Homo sapiens, D-336MG
Description: SANGER: Inhibition of human D-336MG cell growth in a cell viability assay.

G-361 = type: functional, cell-based; conditions: Homo sapiens
NCI-H1563 = type: functional, cell-based; conditions: Homo sapiens
Description: SANGER: Inhibition of human NCI-H1563 cell growth in a cell viability assay.

HT-29 = type: functional, cell-based; conditions: Homo sapiens
Description: SANGER: Inhibition of human HT-29 cell growth in a cell viability assay.

Huh-7 = type: functional, cell-based; conditions: Homo sapiens
Description: SANGER: Inhibition of human HuH-7 cell growth in a cell viability assay.

MC-IXC = type: functional, cell-based; conditions: Homo sapiens
Description: SANGER: Inhibition of human MC-IXC cell growth in a cell viability assay.

BFTC-905 = type: functional, cell-based; conditions: Homo sapiens
Description: SANGER: Inhibition of human BFTC-905 cell growth in a cell viability assay.

## CN(NC(=O)CC(=O)NN(C)C(=S)c1ccccc1)C(=S)c1ccccc1 [ELESCLOMOL]
AU565
  IC50: 59.1 nM
NUGC-3
  IC50: 7.33 nM
SCC-25
  IC50: 23 nM
NCI-H596
  IC50: 44.8 nM
CP50-MEL-B
  IC50: 8.63 nM
PFSK-1
  IC50: 12.7 nM
NCI-H2170
  IC50: 28.8 nM
PANC-03-27
  IC50: 39.9 nM
5637
  IC50: 35.5 nM
NCI-H1623
  IC50: 179 nM
NCI-H2452
  IC50: 21.7 nM
OAW-28
  IC50: > 200 nM
HCC1395
  IC50: 8.47 nM
SW1710
  IC50: 5.16 nM
SK-MEL3
  IC50: > 200 nM
M059J
  IC50: 20.6 nM
DOK
  IC50: 17.9 nM
DMS-273
  IC50: 7.06 nM
CAL-62
  IC50: 55.2 nM
SK-MEL-30
  IC50: > 200 nM
CAPAN-1
  IC50: > 200 nM
NB17
  IC50: 8.94 nM
AN3-CA
  IC50: 10.8 nM
NCI-H358
  IC50: 13.6 nM
IGR-1
  IC50: > 200 nM
UACC-893
  IC50: > 200 nM
PC-14
  IC50: 24.7 nM
RD
  IC50: 13.1 nM
Ca9-22
  IC50: 4.25 nM
HGC-27
  IC50: 7.59 nM
MDA-MB-157
  IC50: 2.92 nM
NCI-H2122
  IC50: 130 nM
HSC-2
  IC50: 107 nM
OE19
  IC50: > 200 nM
NCI-H661
  IC50: 12.5 nM
SW1990
  IC50: 4.32 nM
CAL-33
  IC50: 22.2 nM
SCC-9
  IC50: 121 nM
KOSC-2
  IC50: 5.45 nM
SKG-IIIa
  IC50: 49.8 nM
D-336MG
  IC50: 23.4 nM
G-361
  IC50: 27.5 nM
NCI-H1563
  IC50: 4.13 nM
HT-29
  IC50: > 200 nM
Huh-7
  IC50: 17.6 nM
MC-IXC
  IC50: 7.17 nM
BFTC-905
  IC50: 20.5 nM

## CC1=C(/C=C/C(C)=C/C=C/C(C)=C/C(=O)O)C(C)(C)CCC1 [TRETINOIN]
AU565
  IC50: > 10000 nM
NUGC-3
  IC50: > 10000 nM
SCC-25
  IC50: > 10000 nM
NCI-H596
  IC50: > 10000 nM
CP50-MEL-B
  IC50: > 10000 nM
PFSK-1
  IC50: > 10000 nM
NCI-H2170
  IC50: > 10000 nM
PANC-03-27
  IC50: > 10000 nM
5637
  IC50: > 10000 nM
NCI-H1623
  IC50: > 10000 nM
NCI-H2452
  IC50: > 10000 nM
OAW-28
  IC50: > 10000 nM
HCC1395
  IC50: > 10000 nM
SW1710
  IC50: > 10000 nM
SK-MEL3
  IC50: > 10000 nM
M059J
  IC50: > 10000 nM
DOK
  IC50: > 10000 nM
DMS-273
  IC50: > 10000 nM
CAL-62
  IC50: > 10000 nM
SK-MEL-30
  IC50: > 10000 nM
CAPAN-1
  IC50: > 10000 nM
NB17
  IC50: > 10000 nM
AN3-CA
  IC50: > 10000 nM
NCI-H358
  IC50: > 10000 nM
IGR-1
  IC50: > 10000 nM
UACC-893
  IC50: > 10000 nM
PC-14
  IC50: > 10000 nM
RD
  IC50: > 10000 nM
Ca9-22
  IC50: > 10000 nM
HGC-27
  IC50: > 10000 nM
MDA-MB-157
  IC50: > 10000 nM
NCI-H2122
  IC50: > 10000 nM
HSC-2
  IC50: > 10000 nM
OE19
  IC50: > 10000 nM
NCI-H661
  IC50: > 10000 nM
SW1990
  IC50: > 10000 nM
CAL-33
  IC50: > 10000 nM
SCC-9
  IC50: > 10000 nM
KOSC-2
  IC50: > 10000 nM
SKG-IIIa
  IC50: > 10000 nM
D-336MG
  IC50: > 10000 nM
G-361
  IC50: > 10000 nM
NCI-H1563
  IC50: > 10000 nM
HT-29
  IC50: > 10000 nM
Huh-7
  IC50: > 10000 nM
MC-IXC
  IC50: 154 nM
BFTC-905
  IC50: > 10000 nM

## CC1(C)CCC(c2ccc(Cl)cc2)=C(CN2CCN(c3ccc(C(=O)NS(=O)(=O)c4ccc(N[C@H](CCN5CCOCC5)CSc5ccccc5)c(S(=O)(=O)C(F)(F)F)c4)cc3)CC2)C1 [NAVITOCLAX]
AU565
  IC50: > 2000 nM
NUGC-3
  IC50: > 2000 nM
SCC-25
  IC50: > 2000 nM
NCI-H596
  IC50: > 2000 nM
CP50-MEL-B
  IC50: > 2000 nM
PFSK-1
  IC50: > 2000 nM
NCI-H2170
  IC50: 1060 nM
PANC-03-27
  IC50: > 2000 nM
5637
  IC50: > 2000 nM
NCI-H1623
  IC50: > 2000 nM
NCI-H2452
  IC50: > 2000 nM
OAW-28
  IC50: 784 nM
HCC1395
  IC50: > 2000 nM
SW1710
  IC50: > 2000 nM
SK-MEL3
  IC50: > 2000 nM
M059J
  IC50: > 2000 nM
DOK
  IC50: > 2000 nM
DMS-273
  IC50: > 2000 nM
CAL-62
  IC50: > 2000 nM
SK-MEL-30
  IC50: > 2000 nM
CAPAN-1
  IC50: > 2000 nM
NB17
  IC50: 71.2 nM
AN3-CA
  IC50: > 2000 nM
NCI-H358
  IC50: > 2000 nM
IGR-1
  IC50: > 2000 nM
UACC-893
  IC50: > 2000 nM
PC-14
  IC50: > 2000 nM
RD
  IC50: 759 nM
Ca9-22
  IC50: > 2000 nM
HGC-27
  IC50: > 2000 nM
MDA-MB-157
  IC50: > 2000 nM
NCI-H2122
  IC50: > 2000 nM
HSC-2
  IC50: > 2000 nM
OE19
  IC50: > 2000 nM
NCI-H661
  IC50: > 2000 nM
SW1990
  IC50: > 2000 nM
CAL-33
  IC50: > 2000 nM
SCC-9
  IC50: > 2000 nM
KOSC-2
  IC50: > 2000 nM
SKG-IIIa
  IC50: > 2000 nM
D-336MG
  IC50: > 2000 nM
NCI-H1563
  IC50: > 2000 nM
HT-29
  IC50: > 2000 nM
Huh-7
  IC50: 1670 nM
MC-IXC
  IC50: > 2000 nM
BFTC-905
  IC50: > 2000 nM
